Assay results from PMC5504036, “A tricyclic antidepressant, amoxapine, reduces amyloid-β generation through multiple serotonin receptor 6-mediated targets” (Scientific Reports, 2017).

Target: T1, serotonin receptor 6 (HTR6) (Homo sapiens, UniProt P50406)
T1 construct: human HTR6 expressed by lentivirus in SK-N-SH cells
Assay: GloSensor cAMP assay (agonist) in SK-N-SH cells infected with HTR6 lentivirus
Assay type: cell-based

T1 sequence (P50406 whole entry): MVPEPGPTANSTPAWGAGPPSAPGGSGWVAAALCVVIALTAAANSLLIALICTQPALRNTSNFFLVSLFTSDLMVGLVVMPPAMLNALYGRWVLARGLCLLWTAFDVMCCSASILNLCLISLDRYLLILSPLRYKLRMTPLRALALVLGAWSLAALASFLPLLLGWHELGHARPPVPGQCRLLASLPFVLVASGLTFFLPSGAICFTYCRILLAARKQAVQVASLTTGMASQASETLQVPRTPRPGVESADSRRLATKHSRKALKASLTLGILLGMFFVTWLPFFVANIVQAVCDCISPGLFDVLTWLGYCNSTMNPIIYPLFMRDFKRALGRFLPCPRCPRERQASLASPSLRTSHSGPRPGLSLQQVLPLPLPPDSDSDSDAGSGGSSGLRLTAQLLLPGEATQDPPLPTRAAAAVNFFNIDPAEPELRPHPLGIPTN

Molecule `Cc1[nH]c2ccc(Cl)cc2c1CCN(C)C` [ST1936] has an EC50 of 1.7 nM.
